Key:
C5a = C5a ELISA in plasma, two-hit ALI rat model; format: in vivo
Experimental: C5a was then measured in each sample by ELISA and absorbance was read at 450 nm. Two replicates for each animal were measured for every time point. Data are means and standard error of the mean. Statistical analysis was performed using were conducted using bootstrap approach or Welch's ANOVA. * denotes p=0.010, ** denotes p=0.004, *** denotes p=0.002, and **** denotes p≤0.001 compared to 2-hit animals.
Animals receiving the 2-hit insult had substantially more C5a production at the 1-hour time point as expected (FIG. 20).
RLS-0071 was tested in a two-hit rat model of ALI. The first insult is neutrophil stimulation with lipopolysaccharide (LPS) followed 30 minutes later by a second insult of classical complement activation with incompatible erythrocytes. This model can produce dramatic neutrophil infiltration into alveolar walls, thickening the walls and reducing alveolar airspace by 85%. […] Given the short 5-minute half-life of C5a, the measurement of elevated C5a at 60 minutes is consistent with tissue generated C5a.

[1] = IV 200 mg/ml (800 mg/kg)
human neutrophils = test: Human neutrophil viability, Cell Counting Kit-8; format: cell-based; settings: cells in PBS or RPMI; compared to buffer alone
Experimental: Cell viability in the presence of increasing amounts of PA-dPEG24 was determined using the Cell Counting Kit-8 (Dojindo). Cell Counting Kit-8 (CCK-8) is a sensitive colorimetric assay for the determination of cell viability in cell proliferation and cytotoxicity assays. The highly water-soluble tetrazolium salt, WST-8, is reduced by dehydrogenase activities in cells to give a yellow-color formazan dye, which is soluble in the tissue culture media. The amount of the formazan dye, generated by the activities of dehydrogenases in cells, is directly proportional to the number of living cells. Neutrophils were isolated from whole blood. Briefly, heparinized whole blood was collected from four different individuals (n=4). The blood was spun on a Hypaque/Ficoll gradient. The pellet was collected, and 3% dextran was added for 20 minutes. The supernatant was collected and washed several times. After a red blood cell lysis, the neutrophils were resuspended in either PBS or RPMI at a concentration of 1.0×10^6 cells/mL. ‘Fresh’ neutrophils were taken at this point and 100 uL (100,000 cells/well) were added to a 96-well plate. 10 uL of CCK-8 (Dojindo Molecular Technologies) was added to each well for 2 hours at 37 C. Absorbance at 450 nm was read to determine viability. […] Absorbance at 450 nm was read to determine viability.

MAC-1/CR3 = MAC-1/CR3 (Homo sapiens, UniProt P05107+P11215); test: ELISA-type plate binding assay, MAC-1; settings: 1% gelatin/PBS buffer
Experimental: (§1) To address this hypothesis, an ELISA-type binding assay was developed in which neutrophil ligands (LFA-1 and MAC-1/CR3) and […] cell ligands (ICAM-1/CD54 and ICAM-2/CD102) were bound to microtiter plates. Plates were then incubated with increasing amounts of PA-dPEG24 in 1% gelatin/PBS buffer probed with antibody to the peptide and developed.

human monocytes = test: C1q-immune complex binding to C1q receptors on human monocytes; format: cell-based; settings: increasing amounts of peptide
Text: Human monocytes were purified and allowed to adhere to a microtiter plate. […] Absorbance was read at 450 nm. N=3. Bars indicate standard error of the mean (SEM).
Freshly purified human monocytes were allowed to adhere to a 96 well tissue culture plates and nonadherent lymphocytes were removed. […] Unbound immune complexes were washed off and an anti-rabbit HRP antibody was used to detect bound immune complexes, followed by development with TMB and quenching of the reaction with 1N H2SO4 and detection at 450 nm in a plate reader. […] Therefore, without wishing to be bound by theory, this increase has implications for diseases where immune complexes contribute to pathogenesis, including numerous inflammatory ophthalmologic diseases (e.g., uveitis or retinitis), which are situations were increased rapidity of immune complexes can potentially lessen disease severity.

[2] = system: inflammatory cytokines and chemokines; test: Plasma cytokine and chemokine levels by xMAP bead-based immunoassay in two-hit ALI rat model; format: in vivo
ICAM-1/CD54 = ICAM-1/CD54 (Homo sapiens, UniProt P05362); test: ELISA-type plate binding assay, ICAM-1
Experimental: as §1
To ascertain if PA-dPEG24 could bind ICAM-1 and LFA-1 in plasma, these receptors were coated onto microtiter plates and then incubated with human plasma containing increasing amounts of PA-dPEG24, probed with antibody to the peptide and then developed.

[3] = system: human umbilical vascular endothelial cell (HUVEC); test: HUVEC 3-dimensional culture, LPS-stimulated non-VEGF mediated angiogenesis; settings: increasing amounts of peptide; 10 ug/ml LPS; 18 hours
free DNA = test: Free DNA in plasma by PicoGreen assay, two-hit ALI rat model; format: in vivo
Experimental: . Plasma samples were incubated with PicoGreen. […] All free DNA measurements for each animal were done in triplicate. Data are means and standard error of the mean. Statistical analysis was performed using bootstrap approach or Welch's ANOVA. * denotes p=0.026, ** denotes p=0.039 and *** denotes p=0.005 compared to 2-hit animals.
Neutrophil extracellular traps (NETs) released from activated neutrophils have been previously shown to play a pathogenic role in a variety of autoimmune, metabolic, and inflammatory diseases. […] . […] .

[4] = system: OVA/LPS rat model of neutrophilic asthma; test: OVA/LPS rat model of neutrophilic asthma, leucocyte quantification in BALF; settings: Day 24

ICAM-1/CD54, sequence (P05362 28-532): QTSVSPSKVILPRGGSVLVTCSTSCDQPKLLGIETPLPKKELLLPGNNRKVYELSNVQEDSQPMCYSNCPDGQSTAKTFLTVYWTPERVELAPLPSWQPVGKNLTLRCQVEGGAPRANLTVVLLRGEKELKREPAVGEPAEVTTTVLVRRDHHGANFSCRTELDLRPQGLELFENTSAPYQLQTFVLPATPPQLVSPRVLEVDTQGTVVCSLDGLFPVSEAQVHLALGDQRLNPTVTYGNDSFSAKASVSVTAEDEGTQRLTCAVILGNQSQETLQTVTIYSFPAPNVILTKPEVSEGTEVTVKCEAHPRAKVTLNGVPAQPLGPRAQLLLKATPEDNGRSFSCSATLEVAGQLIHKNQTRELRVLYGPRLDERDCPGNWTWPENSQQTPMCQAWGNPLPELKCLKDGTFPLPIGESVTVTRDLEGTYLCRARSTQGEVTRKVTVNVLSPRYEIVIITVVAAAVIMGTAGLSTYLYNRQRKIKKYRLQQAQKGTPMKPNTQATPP
MAC-1/CR3, sequence (P05107 23-769, other chains not shown): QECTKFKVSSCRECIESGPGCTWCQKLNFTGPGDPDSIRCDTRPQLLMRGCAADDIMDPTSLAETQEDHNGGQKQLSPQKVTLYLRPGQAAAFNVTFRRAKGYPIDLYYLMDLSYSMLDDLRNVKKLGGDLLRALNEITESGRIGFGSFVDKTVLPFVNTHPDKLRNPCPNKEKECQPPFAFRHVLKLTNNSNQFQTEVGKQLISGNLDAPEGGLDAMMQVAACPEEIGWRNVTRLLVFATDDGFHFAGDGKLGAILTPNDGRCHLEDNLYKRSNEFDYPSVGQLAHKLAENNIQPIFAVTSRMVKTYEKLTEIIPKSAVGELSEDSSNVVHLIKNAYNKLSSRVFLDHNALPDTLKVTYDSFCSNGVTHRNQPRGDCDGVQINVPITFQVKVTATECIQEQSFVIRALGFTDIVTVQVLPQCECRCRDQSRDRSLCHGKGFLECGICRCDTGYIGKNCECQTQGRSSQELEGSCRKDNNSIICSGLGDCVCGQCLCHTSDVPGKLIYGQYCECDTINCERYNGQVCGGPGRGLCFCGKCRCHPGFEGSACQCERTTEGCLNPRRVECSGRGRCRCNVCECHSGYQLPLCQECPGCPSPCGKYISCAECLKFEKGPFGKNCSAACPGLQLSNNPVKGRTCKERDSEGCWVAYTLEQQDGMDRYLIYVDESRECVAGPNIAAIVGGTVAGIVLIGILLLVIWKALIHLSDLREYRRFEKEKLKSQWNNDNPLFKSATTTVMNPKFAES

## CC[C@H](C)[C@H](N)C(=O)N[C@@H](C)C(=O)N[C@@H](CC(C)C)C(=O)N[C@H](C(=O)N[C@@H](CC(C)C)C(=O)N[C@@H](CCC(=O)O)C(=O)N1CCC[C@H]1C(=O)N[C@H](C(=O)N[C@@H](CS)C(=O)N[C@@H](CS)C(=O)N[C@@H](CCC(N)=O)C(=O)N[C@@H](CCC(=O)O)C(=O)N[C@@H](CCCNC(=N)N)C(=O)N[C@@H](C)C(=O)N[C@@H](C)C(=O)NCCOCCOCCOCCOCCOCCOCCOCCOCCOCCOCCOCCOCCOCCOCCOCCOCCOCCOCCOCCOCCOCCOCCOCCOCCC(=O)O)[C@@H](C)CC)[C@@H](C)CC [RLS-0071]
C5a; 10 mg/kg IV
  decrease in C5a generation in the tissues: 50%
C5a; all rescue doses 40 mg/kg (0.5-180 minutes), 1-hour time point, vs 2-hit only animals
  C5a level in blood: significantly reduced levels of C5a
C5a; prophylactic 10, 40 and 160 mg/kg, 5-minute time point, p<0.001 each dose
  C5a level in blood: significant reduction of C5a
C5a; prophylactic doses, 1-hour time point, 10 mg/kg reaching significance (p=0.002)
  C5a level in blood: reduction of C5a at the 1-hour time points
C5a; rescue 40 mg/kg at 0.5, 60, 90 and 120 minutes (not 180 minutes), 5-minute time point
  C5a level in blood: significantly decreased levels of C5a
[1]
  RLS-0071 level in plasma after 24 hours: undetectable
Human neutrophils
  neutrophil viability (CCK-8, absorbance 450 nm): dose-dependent increase in viability
MAC-1/CR3
  binding to MAC-1: but not MAC-1
Human monocytes
  amount of C1q detected on monocytes: increased with increasing amounts of PA-dPEG24
  level of C1q-immune complexes bound to monocytes: did not reduce the level of C1q-immune complexes
[2]; 10 or 160 mg/kg before or 40 or 160 mg/kg after transfusion, FIG. 3
  levels of anti-inflammatory Th2 cytokine IL-4: did not significantly decrease
[2]; 10 or 160 mg/kg before or 40 or 160 mg/kg after transfusion, FIG. 4
  other cytokine and growth factor levels (EGF, LIX, VEGF, Leptin, GRO, Fractalkine, GM-CSF, Eotaxin, G-CSF): either significant reduction or a trend toward reduced levels
[2]; 10 or 160 mg/kg before or 40 or 160 mg/kg after transfusion, terminal blood plasma, FIG. 2
  cytokine levels IL-5, IL-18, IL-1alpha, IL-13, IL-17, IL-12, IP-10: either significant pro-inflammatory cytokine reduction or a trend toward reduced levels
[2]; FIG. 4
  VEGF level in 2-hit rat acute lung injury model: downregulate VEGF
[2]; prophylactic 10 or 160 mg/kg, rescue 40 or 160 mg/kg, terminal 4-hour time point, vs untreated 2-hit animals, some significant
  pro-inflammatory cytokines (IL-1a, IL-1b, IL-6, IFN-g, IL-17, IL-18, TNFa, RANTES) and chemokines (MCP-1, MIP-1a, MIP-2): reduced levels of cytokines and chemokines
[2]; single dose 10 or 160 mg/kg before or 40 or 160 mg/kg after transfusion, terminal blood plasma, FIG. 1
  cytokine levels IFNgamma, IL-6, IL-2, IL-10, TNFalpha, MCP-1, RANTES, MIP1alpha, IL-1beta, MIP-2: either significant pro-inflammatory cytokine reduction or a trend toward reduced levels
IVT 160 mg/ml in 5 microliters
  time RLS-0071 could be detected in vitreous post-IVT injection: up to 10 days
IVT 160 mg/ml vs IV 200 mg/ml
  half-life, IVT versus IV: much longer half-life in the eye than peptide delivered intravenously
ICAM-1/CD54; 1% gelatin/PBS buffer
  binding to ICAM-1: bound endothelial receptor ICAM-1
ICAM-1/CD54; in human plasma
  binding to ICAM-1: bound dose-dependently
[3]
  angiogenesis (sprouting and tube formation): dose-dependent reduction in angiogenesis
Free DNA; prophylactic 10, 40 and 160 mg/kg, 4 hours after transfusion, 160 mg/kg significant (p=0.026)
  free DNA level in plasma: reduced levels of free DNA
Free DNA; rescue 40 mg/kg up to three hours after 2-hit injury, 120 and 180 minutes significant (p=0.039, p=0.005)
  free DNA level in plasma: reduced levels of free DNA
[4]; prophylactic 160 mg/kg IV Days 21, 22, 23, P<0.03
  neutrophil accumulation in the BALF: significant reduction in neutrophil accumulation
[4]; rescue 160 mg/kg IV Days 22 and 23, P<0.1844
  neutrophils in the BALF: reduction in neutrophils but did not reach statistical significance

Source: patent US20240010681A1, “PEPTIDES AND METHODS OF USE” (REALTA LIFE SCIENCES, INC., priority 2020, published 2024)
